Data as given in patent US11452717B2, “Small molecule activators of nicotinamide phosphoribosyltransferase (NAMPT) and uses thereof” (Sanford Burnham Prebys Medical Discovery Institute, priority 2017, dated 2022).

biological target: NAMPT enzyme (Homo sapiens (Human), UniProt P43490); test: Enzyme Assay and NMN Detection (NAMPT reaction, fluorescence detection of NMN); format: biochemical; details: Table B-1; NAMPT activation, NMN formation
Experimental: NAMPT reaction was performed in 50 mM HEPES, pH 7.5, containing 5 mM MgCl2, 0.1% Prionex, 0.005% Tween 20, and 1 mM TCEP at room temperature in Greiner 384-well black polypropylene plates. The concentration of substrates and enzymes in the final assay were as follows: ATP (120 uM), nicotinamide (5 uM), phosphoribosylpyrophosphate (6.25 uM), NAMPT enzyme (16 nM), pyrophosphatase (0.04 U/ml) in the final reaction volume 6 uL. Following 2 h incubation the reaction was stopped by addition 2.5 ul 20% acetophenone in dimethyl sulfoxide (DMSO) and 2.5 ul 2 MKOH. Plates were centrifuges and added with 10.5 ul 88% formic acid. The fluorescence (ex380/em460) was measured following another short incubation and 30 min incubation. The increased concentration of NMN was determined from a calibration curve obtained at the time of experiment.

Sequence of NAMPT enzyme (P43490 whole entry, species assumed): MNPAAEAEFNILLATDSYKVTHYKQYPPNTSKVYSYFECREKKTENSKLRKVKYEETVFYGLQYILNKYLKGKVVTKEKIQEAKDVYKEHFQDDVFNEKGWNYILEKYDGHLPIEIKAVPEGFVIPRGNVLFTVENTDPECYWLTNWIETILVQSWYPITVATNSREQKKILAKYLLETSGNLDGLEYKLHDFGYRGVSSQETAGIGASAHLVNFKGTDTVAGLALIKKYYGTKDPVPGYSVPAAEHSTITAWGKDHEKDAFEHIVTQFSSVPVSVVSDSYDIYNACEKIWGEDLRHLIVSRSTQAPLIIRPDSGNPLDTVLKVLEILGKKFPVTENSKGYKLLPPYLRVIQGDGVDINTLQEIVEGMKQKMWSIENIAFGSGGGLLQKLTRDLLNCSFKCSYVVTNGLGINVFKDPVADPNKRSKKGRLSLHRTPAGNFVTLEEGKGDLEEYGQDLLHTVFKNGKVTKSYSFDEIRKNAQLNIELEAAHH

| EC50 | SMILES |
| --- | --- |
| < 100 nM | O=C(NCc1cn[nH]c1)Nc1ccc(S(=O)(=O)c2ccccc2)cc1 [1-(4-Benzenesulfonyl-phenyl)-3-(1H-pyrazol-4-ylmethyl)-urea] |
| < 100 nM | O=C(NCc1cnco1)Nc1ccc(S(=O)(=O)c2ccccc2)cc1 [1-(4-Benzenesulfonyl-phenyl)-3-oxazol-5-ylmethyl-urea] |

same assay, conditions: Table B-2; NAMPT activation, NMN formation

| SMILES | EC50 |
| --- | --- |
| O=C(NCc1ccncc1)Nc1ccc(C(=O)N2Cc3ccccc3C2)cc1 [1-(4-(Isoindoline-2-carbonyl)phenyl)-3-(pyridin-4-ylmethyl)urea] | > 20000 nM |
| O=C(NCc1ccncc1)Nc1ccc(C(=O)N2CCOCC2)cc1 [1-(4-(Morpholine-4-carbonyl)phenyl)-3-(pyridin-4-ylmethyl)urea] | 5000 to 20000 nM |
| O=C(NCc1ccncc1)Nc1ccc(C(=O)N2CCCCC2)cc1 [1-(4-(Piperidine-1-carbonyl)phenyl)-3-(pyridin-4-ylmethyl)urea] | 5000 to 20000 nM |
| O=C(NCc1ccncc1)Nc1ccc(S(=O)(=O)c2ccccc2)cc1 [1-(4-Benzenesulfonyl-phenyl)-3-pyridin-4-ylmethyl-urea] | < 100 nM |

Next, values leading:

| EC50 | SMILES |
| --- | --- |
| 5000 to 20000 nM | O=C(NCc1ccncc1)Nc1ccc(Cl)cc1 [1-(4-Chlorophenyl)-3-(pyridin-4-ylmethyl)urea] |
| > 20000 nM | O=C(NCc1ccncc1)Nc1ccc(F)cc1 [1-(4-Fluorophenyl)-3-(pyridin-4-ylmethyl)urea] |
| > 20000 nM | COc1ccc(NC(=O)NCc2ccncc2)cc1 [1-(4-Methoxyphenyl)-3-(pyridin-4-ylmethyl)urea] |
| 2000 to 5000 nM | O=C(NCc1ccncc1)Nc1ccc(S(=O)(=O)Cc2ccccc2)cc1 [1-(4-Phenylmethanesulfonyl-phenyl)-3-pyridin-4-ylmethyl-urea] |
| < 100 nM | O=C(NCc1ccncc1)Nc1ccc(NS(=O)(=O)Cc2ccc(Cl)cc2)cc1 [1-(4-chlorophenyl)-N-(4-(3-(pyridin-4-ylmethyl)ureido)phenyl)methanesulfonamide] |

same assay, conditions: Table B-3; NAMPT activation, NMN formation

| SMILES | EC50 |
| --- | --- |
| O=C(NCc1ccccn1)Nc1ccc(Cl)cc1 [1-(4-Chlorophenyl)-3-(pyridin-2-ylmethyl)urea] | > 20000 nM |
| O=C(NCc1cccnc1)Nc1ccc(Cl)cc1 [1-(4-Chlorophenyl)-3-(pyridin-3-ylmethyl)urea] | > 20000 nM |

Now from value to compound:

| EC50 | SMILES |
| --- | --- |
| > 20000 nM | O=C(NCc1ccccn1)Nc1ccc(F)cc1 [1-(4-Fluorophenyl)-3-(pyridin-2-ylmethyl)urea] |
| > 20000 nM | O=C(NCc1cccnc1)Nc1ccc(F)cc1 [1-(4-Fluorophenyl)-3-(pyridin-3-ylmethyl)urea] |
| > 20000 nM | COc1ccc(NC(=O)NCc2ccccn2)cc1 [1-(4-Methoxyphenyl)-3-(pyridin-2-ylmethyl)urea] |
| > 20000 nM | COc1ccc(NC(=O)NCc2cccnc2)cc1 [1-(4-Methoxyphenyl)-3-(pyridin-3-ylmethyl)urea] |

same assay, conditions: Table B-4; NAMPT activation, NMN formation

| EC50 | SMILES |
| --- | --- |
| 100 to 2000 nM | O=C(NCc1cn[nH]c1)Nc1ccc(-c2cccc3scnc23)cc1 [1-(4-Benzothiazol-4-yl-phenyl)-3-(1H-pyrazol-4-ylmethyl)-urea] |
| 100 to 2000 nM | O=C(NCc1cn[nH]c1)Nc1ccc(S(=O)(=O)C2CCCCC2)cc1 [1-(4-Cyclohexanesulfonyl-phenyl)-3-(1H-pyrazol-4-ylmethyl)-urea] |
| 100 to 2000 nM | Cc1cccc2c1c(-c1ccc(NC(=O)NCc3cn[nH]c3)cc1)nn2C [1-((1H-Pyrazol-4-yl)methyl)-3-(4-(1,4-dimethyl-1H-indazol-3-yl)phenyl)urea] |
| 100 to 2000 nM | Cc1ccc2c(c1)c(-c1ccc(NC(=O)NCc3cn[nH]c3)cc1)nn2C [1-((1H-Pyrazol-4-yl)methyl)-3-(4-(1,5-dimethyl-1H-indazol-3-yl)phenyl)urea] |
| 2000 to 5000 nM | Cc1cccc2c(-c3ccc(NC(=O)NCc4cn[nH]c4)cc3)nn(C)c12 [1-((1H-Pyrazol-4-yl)methyl)-3-(4-(1,7-dimethyl-1H-indazol-3-yl)phenyl)urea] |
| 2000 to 5000 nM | Cn1nc(-c2ccc(NC(=O)NCc3cn[nH]c3)cc2)c2ccncc21 [1-((1H-Pyrazol-4-yl)methyl)-3-(4-(1-methyl-1H-pyrazolo[3,4-c]pyridin-3-yl)phenyl)urea] |
| 2000 to 5000 nM | O=C(NCc1cn[nH]c1)Nc1ccc(-c2ncc(Cc3ccccc3)s2)cc1 [1-((1H-Pyrazol-4-yl)methyl)-3-(4-(5-benzylthiazol-2-yl)phenyl)urea] |
| 100 to 2000 nM | Cn1nc(-c2ccc(NC(=O)NCc3cn[nH]c3)cc2)c2cc(Cl)ccc21 [1-((1H-Pyrazol-4-yl)methyl)-3-(4-(5-chloro-1-methyl-1H-indazol-3-yl)phenyl)urea] |
| 5000 to 20000 nM | O=C(NCc1cn[nH]c1)Nc1ccc(-c2ncc(-c3ccccc3)s2)cc1 [1-((1H-Pyrazol-4-yl)methyl)-3-(4-(5-phenylthiazol-2-yl)phenyl)urea] |
| 100 to 2000 nM | O=C(NCc1cn[nH]c1)Nc1ccc(S(=O)(=O)c2cn[nH]c2)cc1 [1-((1H-Pyrazol-4-yl)methyl)-3-(4-((1H-pyrazol-4-yl)sulfonyl)phenyl)urea] |
| 5000 to 20000 nM | COc1ccc(-c2ccccc2S(=O)(=O)c2ccc(NC(=O)NCc3cn[nH]c3)cc2)cn1 [1-((1H-Pyrazol-4-yl)methyl)-3-(4-((2-(6-methoxypyridin-3-yl)phenyl)sulfonyl)phenyl)urea] |
| < 100 nM | O=C(NCc1cn[nH]c1)Nc1ccc(S(=O)(=O)c2ccccc2F)cc1 [1-((1H-Pyrazol-4-yl)methyl)-3-(4-((2-fluorophenyl)sulfonyl)phenyl)urea] |
| 100 to 2000 nM | O=C(NCc1cn[nH]c1)Nc1ccc(S(=O)(=O)c2ccccc2-c2ccccc2Cl)cc1 [1-((1H-Pyrazol-4-yl)methyl)-3-(4-((2′-chloro-[1,1′-biphenyl]-2-yl)sulfonyl)phenyl)urea] |

same assay, conditions: Table B-5; NAMPT activation, NMN formation

| SMILES | EC50 |
| --- | --- |
| O=C(NCc1cnco1)Nc1ccc(S(=O)(=O)c2ccc(Cl)cc2)cc1 [1-(4-((4-Chlorophenyl)sulfonyl)phenyl)-3-(oxazol-5-ylmethyl)urea] | 100 to 2000 nM |
| O=C(NCc1cnco1)Nc1ccc(S(=O)(=O)c2ccc(F)cc2)cc1 [1-(4-((4-Fluorophenyl)sulfonyl)phenyl)-3-(oxazol-5-ylmethyl)urea] | 100 to 2000 nM |
| O=C(NCc1cnco1)Nc1ccc(-c2nc3ccccc3s2)cc1 [1-(4-(Benzo[d]thiazol-2-yl)phenyl)-3-(oxazol-5-ylmethyl)urea] | 5000 to 20000 nM |
| O=C(NCc1cnco1)Nc1ccc(Nc2nc3ccccc3s2)cc1 [1-(4-(Benzo[d]thiazol-2-ylamino)phenyl)-3-(oxazol-5-ylmethyl)urea] | 5000 to 20000 nM |
| O=C(NCc1cnco1)Nc1ccc(S(=O)(=O)c2ccccc2-c2ccccc2)cc1 [1-(4-([1,1′-Biphenyl]-2-ylsulfonyl)phenyl)-3-(oxazol-5-ylmethyl)urea] | < 100 nM |
| O=C(NCc1cnco1)Nc1ccc(S(=O)(=O)c2cccc(-c3ccccc3)c2)cc1 [1-(4-([1,1′-Biphenyl]-3-ylsulfonyl)phenyl)-3-(oxazol-5-ylmethyl)urea] | 100 to 2000 nM |
| O=C(NCc1cnco1)Nc1ccc(-c2cccc3scnc23)cc1 [1-(4-Benzothiazol-4-yl-phenyl)-3-oxazol-5-ylmethyl-urea] | 100 to 2000 nM |

More lines, now with the values ahead:

| EC50 | SMILES |
| --- | --- |
| < 100 nM | O=C(NCc1cnco1)Nc1ccc(NS(=O)(=O)Cc2ccc(Cl)cc2)cc1 [1-(4-Chlorophenyl)-N-(4-(3-(oxazol-5-ylmethyl)ureido)phenyl)methanesulfonamide] |
| 2000 to 5000 nM | O=C(NCc1cnco1)Nc1ccc(S(=O)(=O)C2CCCCC2)cc1 [1-(4-cyclohexanesulfonyl-phenyl)-3-oxazol-5-ylmethyl-urea] |

same assay, conditions: Table B-6; NAMPT activation, NMN formation

| EC50 | SMILES |
| --- | --- |
| < 100 nM | O=C(NCc1ccncc1)Nc1ccc(S(=O)(=O)c2cccc(F)c2)cc1 [1-(4-((3-Fluorophenyl)sulfonyl)phenyl)-3-(pyridin-4-ylmethyl)urea] |
| 2000 to 5000 nM | N#Cc1cccc(-c2ccccc2S(=O)(=O)c2ccc(NC(=O)NCc3ccncc3)cc2)c1 [1-(4-((3′-Cyano-[1,1′-biphenyl]-2-yl)sulfonyl)phenyl)-3-(pyridin-4-ylmethyl)urea] |
| 100 to 2000 nM | O=C(NCc1ccncc1)Nc1ccc(S(=O)(=O)c2ccc(F)cc2)cc1 [1-(4-((4-Fluorophenyl)sulfonyl)phenyl)-3-(pyridin-4-ylmethyl)urea] |
| 100 to 2000 nM | O=C(NCc1ccncc1)Nc1ccc(Nc2nc(-c3ccccc3)cs2)cc1 [1-(4-((4-Phenylthiazol-2-yl)amino)phenyl)-3-(pyridin-4-ylmethyl)urea] |
| 5000 to 20000 nM | O=C(NCc1ccncc1)Nc1ccc(Nc2ncc(-c3ccccc3)s2)cc1 [1-(4-((5-Phenylthiazol-2-yl)amino)phenyl)-3-(pyridin-4-ylmethyl)urea] |
| 5000 to 20000 nM | O=C(NCc1ccncc1)Nc1ccc(-c2nc3ccccc3s2)cc1 [1-(4-(Benzo[d]thiazol-2-yl)phenyl)-3-(pyridin-4-ylmethyl)urea] |
| 100 to 2000 nM | O=C(NCc1ccncc1)Nc1ccc(S(=O)(=O)c2ccccn2)cc1 [1-(4-(Pyridin-2-ylsulfonyl)phenyl)-3-(pyridin-4-ylmethyl)urea] |
| 100 to 2000 nM | O=C(NCc1ccncc1)Nc1ccc(S(=O)(=O)c2ccccc2-c2ccccc2)cc1 [1-(4-([1,1′-Biphenyl]-2-ylsulfonyl)phenyl)-3-(pyridin-4-ylmethyl)urea] |
| 100 to 2000 nM | O=C(NCc1ccncc1)Nc1ccc(-c2cccc3scnc23)cc1 [1-(4-Benzothiazol-4-yl-phenyl)-3-pyridin-4-ylmethyl-urea] |
| 100 to 2000 nM | O=C(NCc1ccncc1)Nc1ccc(S(=O)(=O)C2CCCCC2)cc1 [1-(4-Cyclohexanesulfonyl-phenyl)-3-pyridin-4-ylmethyl-urea] |

| SMILES | EC50 |
| --- | --- |
| N#Cc1ccc(-c2ccccc2S(=O)(=O)c2ccc(NC(=O)NCc3ccncc3)cc2)cc1 [1-(4-((4′-Cyano-[1,l′-biphenyl]-2-yl)sulfonyl)phenyl)-3-(pyridin-4-ylmethyl)urea] | 5000 to 20000 nM |
